These compounds were tested against T1, rat mGluR1a receptor (Rattus norvegicus, UniProt P23385) (assay: Binding assay for the characterization of mGluR 1 antagonistic properties (tritiated radioligand displacement)). Conditions: membranes of HEK 293 cells transiently transfected with rat mGluR1a; tritiated 1-ethyl-2-methyl-6-oxo-4-(1,1,2-tritritio-1,2,4,5-tetrahydro-benzo[d]azepin-3-yl)-1,6-dihydro-pyrimidine-5-carbonitrile at 3 nM; 1 hour at room temperature.
T1 construct: expressed in transfected cells; host or cells: HEK 293 cells, transient transfection; membrane preparation
T1 sequence (P23385 19-1199): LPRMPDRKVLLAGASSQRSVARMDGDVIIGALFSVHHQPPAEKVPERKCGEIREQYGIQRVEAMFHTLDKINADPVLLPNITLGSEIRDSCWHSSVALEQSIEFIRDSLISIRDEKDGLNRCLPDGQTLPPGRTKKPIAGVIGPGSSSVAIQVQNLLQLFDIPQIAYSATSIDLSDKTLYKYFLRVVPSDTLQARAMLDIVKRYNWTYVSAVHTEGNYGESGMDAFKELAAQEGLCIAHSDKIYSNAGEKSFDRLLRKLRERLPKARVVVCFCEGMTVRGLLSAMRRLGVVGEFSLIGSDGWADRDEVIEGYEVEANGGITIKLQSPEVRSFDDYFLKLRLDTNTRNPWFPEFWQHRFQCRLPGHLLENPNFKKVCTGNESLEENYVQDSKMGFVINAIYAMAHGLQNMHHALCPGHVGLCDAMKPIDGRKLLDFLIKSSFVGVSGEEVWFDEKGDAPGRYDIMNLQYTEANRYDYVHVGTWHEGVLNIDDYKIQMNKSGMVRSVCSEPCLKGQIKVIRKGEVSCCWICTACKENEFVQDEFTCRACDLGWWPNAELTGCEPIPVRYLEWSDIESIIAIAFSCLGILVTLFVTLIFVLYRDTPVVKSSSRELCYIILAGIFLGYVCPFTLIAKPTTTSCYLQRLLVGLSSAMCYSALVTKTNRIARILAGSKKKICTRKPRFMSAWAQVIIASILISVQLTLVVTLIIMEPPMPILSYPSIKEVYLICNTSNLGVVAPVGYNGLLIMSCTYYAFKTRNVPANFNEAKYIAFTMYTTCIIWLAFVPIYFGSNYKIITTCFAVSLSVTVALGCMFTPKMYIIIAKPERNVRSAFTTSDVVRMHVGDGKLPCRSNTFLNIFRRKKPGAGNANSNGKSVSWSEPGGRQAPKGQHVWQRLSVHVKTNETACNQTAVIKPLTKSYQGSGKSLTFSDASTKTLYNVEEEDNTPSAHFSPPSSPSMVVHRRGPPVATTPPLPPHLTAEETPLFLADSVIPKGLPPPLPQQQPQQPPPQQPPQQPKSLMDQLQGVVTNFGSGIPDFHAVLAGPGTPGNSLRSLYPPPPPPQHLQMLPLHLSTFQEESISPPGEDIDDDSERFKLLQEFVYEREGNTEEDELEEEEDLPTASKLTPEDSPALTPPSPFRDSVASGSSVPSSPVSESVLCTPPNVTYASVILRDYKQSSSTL
Method: Binding Assay for the Characterization of mGluR 1 Antagonistic Properties
Binding assay with tritiated 1-ethyl-2-methyl-6-oxo-4-(1,1,2-tritritio-1,2,4,5-tetrahydro-benzo[d]azepin-3-yl)-1,6-dihydro-pyrimidine-5-carbonitrile: HEK 293 cells were transiently transfected with the rat mGluR^1 a receptor. The cells were collected and washed 3 times with PBS. The cell pellets were frozen at −80° C. Membranes were prepared from HEK 293 cells transfected with the rat mGluR^1 a receptor and used in the binding experiments at 10 μg proteins per assay after resuspension in a HEPES NaOH 20 mM, pH=7.4 binding buffer. 1-Ethyl-2-methyl-6-oxo-4-(1,1,2-tritritio-1,2,4,5-tetrahydro-benzo [d]azepin-3-yl)-1,6-dihydro-pyrimidine-5-carbonitrile (S.A 33.4 Ci/mmol) was used at 3 nM final concentration. The incubation with variable concentrations of potential inhibitors was performed for 1 hour at room temperature, the incubate was then filtered onto GF/B glass fiber filter preincubated 1 hour in PEI 0,1% and washed 3 times with 1 ml of cold binding buffer. The radioactivity retained on the unifilter 96 was counted using a Topcount β counter. After correction for non specific binding the data were normalized and the IC50 value calculated using a 4 parameters logistic equation which was fitted to the inhibition curve.

Q: Which IC50 does the source give for Cc1nc(N2CCN(c3ccc(F)cc3)CC2)c([N+](=O)[O-])c(=O)n1CCO [Example 8-1, 6-[4-(4-fluoro-phenyl)-piperazin-1-yl]-3-(2-hydroxy-ethyl)-2-methyl-5-nitro-3H-pyrimidin-4-one] here?
A: 42 nM

Q: Cc1nc(OCCO)c([N+](=O)[O-])c(N2CCN(c3ccc(F)cc3)CC2)n1 [Example 8-2, 2-{6-[4-(4-fluoro-phenyl)-piperazin-1-yl]-2-methyl-5-nitro-pyrimidin-4-yloxy}-ethanol] was tested. Which IC50 did it give?
A: 58 nM

Q: CCn1c(C)nc(N2CCN(c3ccc(F)cc3)CC2)c([N+](=O)[O-])c1=O [Example 10-1, 3-ethyl-6-[4-(4-fluoro-phenyl)-piperazin-1-yl]-2-methyl-5-nitro-3H-pyrimidin-4-one] was tested. Which IC50 did it give?
A: 49 nM

Q: How did the IC50 turn out when N#Cc1c(NCCO)nc(NCCO)nc1N1CCN(c2ccccc2F)CC1 [Example 20, 4-[4-(2-Fluoro-phenyl)-piperazin-1-yl]-2,6-bis-(2-hydroxy-ethylamino)-pyrimidine-5-carbonitrile] was run?
A: 290 nM

Q: For CSc1ccccc1N1CCN(c2nc(NCCO)nc(NCCO)c2C#N)CC1 [Example 25, 2,4-Bis-(2-hydroxy-ethylamino)-6-[4-(2-methylsulfanyl-phenyl)-piperazin-1-yl]-pyrimidine-5-carbonitrile], which IC50 is on record?
A: 350 nM

Q: Which IC50 does the source give for N#Cc1c(NCCO)nc(NCCO)nc1N1CCN(c2ccccc2[N+](=O)[O-])CC1 [Example 29, 2,4-Bis-(2-hydroxy-ethylamino)-6-[4-(2-nitro-phenyl)-piperazin-1-yl]-pyrimidine-5-carbonitrile] here?
A: 750 nM

Q: N#Cc1c(NCCO)nc(NCCO)nc1N1CCC(c2ccc(F)cc2)CC1 [Example 32, 4-[4-(4-Fluoro-phenyl)-piperidin-1-yl]-2,6-bis-(2-hydroxy-ethylamino)-pyrimidine-5-carbonitrile] was tested. Which IC50 did it give?
A: 700 nM

Q: Which IC50 does the source give for N#Cc1c(NCCO)nc(NCCO)nc1N1CC=C(c2ccc(F)cc2)CC1 [Example 35, 4-[4-(4-Fluoro-phenyl)-3,6-dihydro-2H-pyridin-1-yl]-2,6-bis-(2-hydroxy-ethylamino)-pyrimidine-5-carbonitrile] here?
A: 390 nM

Q: How did the IC50 turn out when N#Cc1c(NCCO)nc(NCCO)nc1N1CCC(C#N)(c2ccccc2)CC1 [Example 37, 4-(4-cyano-4-phenyl-piperidin-1-yl)-2,6-bis-(2-hydroxy-ethylamino)-pyrimidine-5-carbonitrile] was run?
A: 1800 nM

Q: N#Cc1c(NC2CC2)nc(NC2CC2)nc1N1CCN(c2ccccc2)CC1 [Example 38, 2,4-Bis-cyclopropylamino-6-(4-phenyl-piperazin-1-yl)-pyrimidine-5-carbonitrile] was tested. Which IC50 did it give?
A: 64 nM

Q: Which IC50 does the source give for N#Cc1c(NCc2ccccn2)nc(NCc2ccccn2)nc1N1CCN(c2ccccc2)CC1 [Example 40, 4-(4-Phenyl-piperazin-1-yl)-2,6-bis-[(pyridin-2-ylmethyl)-amino]-pyrimidine-5-carbonitrile] here?
A: 1500 nM

Q: N#Cc1c(NCCO)nc(NC2CC2)nc1N1CCN(c2ccccc2)CC1 [Example 47, 2-cyclopropylamino-4-(2-hydroxy-ethylamino)-6-(4-phenyl-piperazin-1-yl)-pyrimidine-5-carbonitrile] was tested. Which IC50 did it give?
A: 33 nM

Q: How did the IC50 turn out when N#Cc1c(NCCO)nc(NCc2cccnc2)nc1N1CCN(c2ccccc2)CC1 [Example 49, 4-(2-Hydroxy-ethylamino)-6-(4-phenyl-piperazin-1-yl)-2-[(pyridin-3-ylmethyl)-amino]-pyrimidine-5-carbonitrile] was run?
A: 150 nM

Q: With N#Cc1c(NCCO)nc(NCc2cccnc2)nc1N1CCC(c2ccccc2)CC1 [Example 54, 4-(2-Hydroxy-ethylamino)-6-(4-phenyl-piperidin-1-yl)-2-[(pyridin-3-ylmethyl)-amino]-pyrimidine-5-carbonitrile] as the compound, how does the IC50 read?
A: 30 nM

Q: N#Cc1c(OCC(F)(F)F)nc(NCCO)nc1N1CCC(c2ccccc2)CC1 [Example 60, 2-(2-Hydroxy-ethylamino)-4-(4-phenyl-piperidin-1-yl)-6-(2,2,2-trifluoro-ethoxy)-pyrimidine-5-carbonitrile] was tested. Which IC50 did it give?
A: 36 nM

From US6673795B2, “Pyrimidine, pyrazine and triazane derivatives” (Hoffmann-La Roche Inc., priority 2001, dated 2004)
